The target in data set [1] is T1, Nuclear receptor subfamily 1 group I member 2 (Homo sapiens, UniProt O75469).
T1 sequence (O75469 whole entry): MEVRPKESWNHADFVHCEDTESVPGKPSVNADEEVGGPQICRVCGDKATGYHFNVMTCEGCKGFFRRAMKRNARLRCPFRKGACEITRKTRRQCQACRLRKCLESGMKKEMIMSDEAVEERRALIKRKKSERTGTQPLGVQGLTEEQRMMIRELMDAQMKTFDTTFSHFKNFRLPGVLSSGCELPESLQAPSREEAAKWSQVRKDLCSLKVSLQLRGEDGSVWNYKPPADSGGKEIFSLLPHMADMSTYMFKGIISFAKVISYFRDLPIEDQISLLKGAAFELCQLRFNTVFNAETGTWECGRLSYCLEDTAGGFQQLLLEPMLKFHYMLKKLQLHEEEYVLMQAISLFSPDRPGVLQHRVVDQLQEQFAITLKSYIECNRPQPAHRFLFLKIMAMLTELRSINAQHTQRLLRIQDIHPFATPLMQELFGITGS
Put plainly: Activation of human PXR at 10 nM to 10 uM. In kind it is ADME. Conditions: 0.01 µM.

The target in the next data set is T2, Progesterone receptor (Homo sapiens, UniProt P06401).
T2 sequence (P06401 whole entry): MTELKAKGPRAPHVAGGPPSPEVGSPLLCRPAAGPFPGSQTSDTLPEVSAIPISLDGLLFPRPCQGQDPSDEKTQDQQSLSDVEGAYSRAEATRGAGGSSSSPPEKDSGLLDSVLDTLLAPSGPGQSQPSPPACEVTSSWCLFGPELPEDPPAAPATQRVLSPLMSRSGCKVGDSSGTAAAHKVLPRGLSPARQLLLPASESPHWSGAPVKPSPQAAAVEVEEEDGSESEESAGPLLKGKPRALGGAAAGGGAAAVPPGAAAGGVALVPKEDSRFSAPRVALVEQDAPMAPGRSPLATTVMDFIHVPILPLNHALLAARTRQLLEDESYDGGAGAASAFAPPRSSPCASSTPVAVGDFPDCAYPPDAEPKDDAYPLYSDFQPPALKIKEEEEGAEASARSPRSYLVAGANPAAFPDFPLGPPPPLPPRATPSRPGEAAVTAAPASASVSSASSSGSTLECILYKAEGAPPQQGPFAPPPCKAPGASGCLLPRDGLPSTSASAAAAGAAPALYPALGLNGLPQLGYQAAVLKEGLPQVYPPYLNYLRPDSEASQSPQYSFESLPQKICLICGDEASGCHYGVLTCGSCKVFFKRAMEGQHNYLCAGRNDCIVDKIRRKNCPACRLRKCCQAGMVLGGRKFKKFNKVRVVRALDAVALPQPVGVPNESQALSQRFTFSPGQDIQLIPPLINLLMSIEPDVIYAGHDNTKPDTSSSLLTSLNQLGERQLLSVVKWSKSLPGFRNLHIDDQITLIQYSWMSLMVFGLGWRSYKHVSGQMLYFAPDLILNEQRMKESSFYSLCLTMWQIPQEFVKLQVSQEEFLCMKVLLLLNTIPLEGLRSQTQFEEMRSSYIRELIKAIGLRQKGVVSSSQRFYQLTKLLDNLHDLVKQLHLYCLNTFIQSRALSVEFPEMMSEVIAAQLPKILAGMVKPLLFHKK
Put plainly: Displacement of [3H]ORG2058 from progesterone receptor in human breast carcinoma cytosol at 0.5 to 3.5 uM by liquid scintillation counting based DCC competitive binding assay. In general terms: In a radioligand displacement assay an active substance lowers the binding of a labelled ligand.

Another data set addresses P-gp (ABCB1) (Homo sapiens, UniProt P08183). Put plainly: Inhibition of P-gp in human K562/R7 cells assessed as daunorubicin accumulation at 10 uM incubated fro 1 hr by flow cytometry relative to cyclosporine A. Conditions: probe daunorubicin, read-out: Activity. In kind it is cell-based. A general note: Flow cytometry measures light scatter and fluorescence of single cells or particles in a stream.

The test system of data set [2] is K562/R7. Put plainly: Potentiation of doxorubicin-induced antitumor activity against human K562/R7 cells xenografted in SCID mouse assessed as reduction in tumor volume at 10 mg/kg co-treated with 1.5 mg/kg doxorubicin after 40 days post dose. In kind it is functional, organism-based.
Data set [3] relates to K562/R7. The data set is described as follows: Potentiation of doxorubicin-induced antitumor activity against human K562/R7 cells xenografted in SCID mouse assessed as reduction in tumor volume at 10 mg/kg co-treated with 1.5 mg/kg doxorubicin measured up to 80 days. In kind it is functional, organism-based. A general note: Xenograft models place foreign cells or tissue in a host animal.

Data set [4] concerns NCI-H295R. Put plainly: Potentiation of doxorubicin-induced antitumor activity against human NCI-H295R cells xenografted in SCID mouse assessed as reduction in tumor volume at 10 mg/kg co-treated with 1.5 mg/kg doxorubicin after 40 days post dose. In kind it is functional, organism-based.
Data set [5] deals with NCI-H295R. The data set is described as follows: Potentiation of doxorubicin-induced antitumor activity against human NCI-H295R cells xenografted in SCID mouse assessed as reduction in tumor volume at 10 mg/kg co-treated with 1.5 mg/kg doxorubicin measured up to 80 days. In kind it is functional, organism-based.

Each structure is given as a SMILES string. Active and inactive are the calls of the source. No cut-off for these calls is given here.

Sequence of P-gp (ABCB1) (P08183 whole entry): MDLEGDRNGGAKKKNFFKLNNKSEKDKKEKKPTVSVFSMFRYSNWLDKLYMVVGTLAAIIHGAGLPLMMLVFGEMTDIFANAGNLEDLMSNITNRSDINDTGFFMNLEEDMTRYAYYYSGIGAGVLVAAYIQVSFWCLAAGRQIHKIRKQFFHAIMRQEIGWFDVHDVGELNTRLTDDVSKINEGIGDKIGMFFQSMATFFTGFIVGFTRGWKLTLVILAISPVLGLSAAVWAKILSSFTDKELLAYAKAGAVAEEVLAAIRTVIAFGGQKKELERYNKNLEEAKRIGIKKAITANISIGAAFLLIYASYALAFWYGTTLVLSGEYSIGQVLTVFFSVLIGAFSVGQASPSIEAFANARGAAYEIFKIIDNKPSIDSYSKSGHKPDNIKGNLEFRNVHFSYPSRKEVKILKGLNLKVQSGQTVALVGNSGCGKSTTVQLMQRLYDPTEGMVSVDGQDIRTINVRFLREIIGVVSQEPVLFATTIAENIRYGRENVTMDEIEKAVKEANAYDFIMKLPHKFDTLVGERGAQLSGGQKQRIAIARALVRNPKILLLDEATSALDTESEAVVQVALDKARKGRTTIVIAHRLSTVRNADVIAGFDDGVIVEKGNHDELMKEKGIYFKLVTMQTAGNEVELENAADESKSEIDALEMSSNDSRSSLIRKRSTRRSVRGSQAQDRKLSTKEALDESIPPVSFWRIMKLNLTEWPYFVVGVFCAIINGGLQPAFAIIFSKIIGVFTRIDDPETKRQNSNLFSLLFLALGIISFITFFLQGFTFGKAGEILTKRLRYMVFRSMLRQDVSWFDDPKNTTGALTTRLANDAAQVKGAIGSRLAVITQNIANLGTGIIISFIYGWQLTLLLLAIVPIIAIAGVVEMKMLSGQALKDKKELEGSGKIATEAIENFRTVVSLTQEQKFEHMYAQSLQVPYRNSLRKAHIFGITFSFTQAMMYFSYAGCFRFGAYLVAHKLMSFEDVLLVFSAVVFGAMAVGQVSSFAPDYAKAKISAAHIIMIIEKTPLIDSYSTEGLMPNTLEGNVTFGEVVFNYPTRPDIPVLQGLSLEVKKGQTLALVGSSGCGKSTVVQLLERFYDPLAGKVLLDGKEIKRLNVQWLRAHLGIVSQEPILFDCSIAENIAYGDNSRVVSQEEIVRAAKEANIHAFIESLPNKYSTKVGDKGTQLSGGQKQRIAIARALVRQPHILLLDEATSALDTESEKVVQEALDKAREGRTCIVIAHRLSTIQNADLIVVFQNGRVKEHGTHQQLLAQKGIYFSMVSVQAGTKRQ

For `CC(=O)[C@@]1(O[C@@H]2CCCCO2)CC[C@H]2[C@@H]3CC[C@@H]4CC(=O)CC[C@]4(C)[C@H]3[C@H](O[C@H]3CCCCO3)C[C@@]21C`, the Activity result in data set [1] was “Not Active”.
With `CC(=O)[C@@]1(O[C@@H]2CCCCO2)CC[C@H]2[C@@H]3CC[C@@H]4CC(=O)CC[C@]4(C)[C@H]3[C@H](O[C@@H]3CCCCO3)C[C@@]21C`, in data set [1], the Activity entry is recorded as “Not Active”.
For the compound `CC(=O)[C@H]1CC[C@H]2[C@H]3[C@H]([C@H](OC(=O)c4ccccc4)C[C@]12C)[C@@]1(C)CCC(=O)C[C@H]1C[C@H]3OC(=O)c1ccccc1`, the Activity result (in data set [1]; at Progesterone receptor) was “Not Active” each time.
For `CC(=O)[C@H]1CC[C@H]2[C@H]3[C@H]([C@H](O[C@@H]4CCCCO4)C[C@]12C)[C@@]1(C)CCC(=O)C[C@H]1C[C@@H]3OC(=O)c1ccccc1`, the Activity result in data set [1] is “Not Active”.
For the compound `CC(=O)[C@H]1CC[C@H]2[C@H]3[C@H]([C@H](OC(=O)c4ccccc4)C[C@]12C)[C@@]1(C)CCC(=O)C[C@H]1C[C@@H]3OC(=O)c1ccccc1`, on Progesterone receptor, the Activity result is “Not Active”.
As to `COC(=O)CC[C@@H](C)[C@H]1CC[C@H]2[C@@H]3[C@H](OC(=O)c4ccccc4)CC4CC(=O)CC[C@]4(C)[C@H]3C[C@H](O[C@@H]3CCCCO3)[C@]12C` (single isomer, unassigned), the inhibition at 1 h, 10 µM at P-gp (ABCB1) stood at 79.8%.
Take `CC(=O)[C@H]1CC[C@H]2[C@H]3[C@H]([C@H](O[C@@H]4CCCCO4)C[C@]12C)[C@@]1(C)CCC(=O)C[C@H]1C[C@H]3OC(=O)c1ccccc1`: the result in the data set on K562/R7 [2], in the data set on K562/R7 [3], in the data set on NCI-H295R [4] and in the data set on NCI-H295R [5] was Active. The Activity entry (in data set [1]; on Progesterone receptor) was “Not Active” in each case. For the same compound, the inhibition at 1 h, 10 µM on P-gp (ABCB1) worked out at 119%.
In the case of `CC(=O)[C@@]1(O[C@H]2CCCCO2)CC[C@H]2[C@@H]3CC[C@@H]4CC(=O)CC[C@]4(C)[C@H]3[C@H](O[C@H]3CCCCO3)C[C@@]21C`, the Activity result (in data set [1]; at Progesterone receptor) was “Not Active” each time.

Source of the values: ChEMBL document CHEMBL4417622, “New steroid inhibitors of pgp for use for inhibiting multidrug resistance” (2012).
